26 compounds from paper PMC12648864 (Biology of Sex Differences, 2025) can be followed below.

This assay deals with plasma metabolites. In kind it is in vivo, rat. As to the method:
Male and female SD rats were divided into experimental and control groups. Each group contained 10 male and 10 female rats. […] Blood was collected from orbital vein into sodium heparin-coated centrifugal tubes pre-chilled at 4 ℃, at 30 min, 2 h, and 12 h post-administration respectively. Plasma was separated by gentle inversion, immediately quenched in liquid nitrogen, and centrifuged at 1500 g for 10 min at 4 ℃. The prepared plasma was stored at − 80 ℃ until LC-MS/MS analysis.
The stored plasma samples were thawed at 4 °C, and 100 µL of each sample was transferred to a centrifuge tube. Proteins were precipitated using 1 mL of methanol/acetonitrile/water solution (2:2:1, v: v:v) at 4 °C. After vortex mixing, the sample mixture was sonicated for 30 min (ice was used to maintain the low-temperature conditions). The sonicated mixture was allowed to stand for 10 min at […], then centrifuged at 14,000 g for 20 min at 4 °C. The resulting supernatant was collected and dried under vacuum. For instrumental analysis, the dried supernatant was reconstituted in 100 µL of aqueous acetonitrile solution, vortexed, then centrifuged at 14,000 g for 15 min at 4 °C. To ensure instrument stability and data reliability, quality control samples were prepared and analyzed using random sampling.
Chromatographic conditions: separation was performed in a Waters Acquity UPLC BEH Amide column (1.7 μm, 2.1 × 100 mm). The column temperature was 25 ℃ and flow rate was 0.5 mL/min. The injection volume was 2 µL, with the mobile phases consisting of A: water + 25 mM ammonium acetate + 25 mM ammonia, and B: acetonitrile. The gradient elution program was as follows: 0–0.5 min, 95% B; 0.5–7 min, 95%−65% B; 7–8 min, 65%−40% B; 8–9 min, 40% B; 9–9.1 min, 40%−95%B; 9.1–12 min, 95%B.
MS conditions: Detection was carried out using electrospray ionization in both positive and negative ion modes. The following parameters were used: spray voltage, ± 5500 V; ionization temperature, 600 ℃; nebulization air pressure, 60 psi; auxiliary air pressure, 60 psi; air curtain air pressure, 30 psi; time-of-flight MS scanning range (m/z), 60–1000 Da; product ion scanning range, 25–1000 Da. The secondary mass spectra were acquired using information-dependent acquisition in high-resolution mode. The cone bore voltage was ± 60 V (positive and negative modes) and collision energy was 35 ± 15 eV.
Orthogonal partial least squares-discriminant analysis (OPLS-DA) were computed for control female and male rats. […] Differential metabolites were identified using stringent criteria: variable importance in projection (VIP) scores > 1 and statistically significant from t-test.
OPLS-DA scores were calculated for the control group and experimental male rats. […] Differential metabolites were identified using stringent selection criteria: VIP scores > 1.0 and P < 0.05, as derived from the OPLS-DA model.
We performed pairwise comparisons of metabolites between male and female rats in the experimental and control groups. […] We performed KEGG enrichment analysis on metabolites that differed between male and female rats in the experimental group (Fig. 6G-I).

The mark [1] stands for this setting: male rats, test (TM3) vs control (BM3), 30 minutes, plasma.
Where [2] appears, read: female rats, 30 minutes, test group (TF3, strychnine) vs control group (BF3), plasma metabolite.
The mark [3] stands for this setting: male rats, test (TM5) vs control (BM5), 2 hours, plasma.
The mark [4] stands for this setting: female rats, 2 hour, test group (TF5, strychnine) vs control group (BF5), plasma metabolite.
Setting [5] is: female rats, 12 hour, test group (TF8, strychnine) vs control group (BF8), plasma metabolite.
The mark [6] stands for this setting: male rats, test (TM8) vs control (BM8), 12 hours, plasma.

Values joined by “and” are separate entries in the source; they are usually repeats but may differ in a detail not shown here. Equal values may be shown once. Read-outs that look alike come from different tables or passages of the source.

For `CCCCCCCC/C=C\CCCCCCCC(=O)O[C@H](COC(=O)CCCCCCCCCCCCCCCCC)COP(=O)([O-])OCC[N+](C)(C)C`, under setting [1], the Fold change was determined as 0.7683.
Take `CCCCCCCC/C=C\CCCCCCCC(=O)OC[C@H](COP(=O)([O-])OCC[N+](C)(C)C)OC(=O)CCCCCCC/C=C\CCCCCCCC`: the Fold change turned out to be 0.7409 under setting [2] and 1.344 under setting [1].
On to `CCCCC/C=C\C/C=C\CCCCCCCC(=O)OCC(O)CO` (racemic) [MG(18:2(9Z,12Z)/0:0/0:0)[rac]], for which the Fold change under setting [1] was 0.8489.
`C[n+]1cccc(C(N)=O)c1` [1-Methylnicotinamide]: under setting [3], the Fold change was 1.347.
In the case of `CCCCCCCCCCCCCC(=O)OC[C@@H](O)COP(=O)([O-])OCC[N+](C)(C)C` [1-Myristoyl-sn-glycero-3-phosphocholine], the Fold change turned out to be 0.7956 under setting [2]; 0.6202 under setting [4]; 0.767 under setting [5]; 1.568 under setting [1]; 1.421 under setting [6].
On to `CCCCCCCC/C=C\CCCCCCCC(=O)OC[C@@H](O)COP(=O)([O-])OCC[N+](C)(C)C` [1-Oleoyl-sn-glycero-3-phosphocholine], for which the Fold change under setting [2] was 0.8445.
For the compound `CCCCCCCCCCCCCCCC(=O)OCC(O)CO` (stereo not shown) [1-Palmitoylglycerol], the Fold change is, setting by setting: under setting [2], 0.3279; under setting [5], 1.171; under setting [3], 0.6081.
With `CCCCCCCCCCCCCCCC(=O)OC[C@@H](O)COP(=O)([O-])OCC[N+](C)(C)C` [1-Palmitoyllysophosphatidylcholine], the Fold change under setting [3] is on record as 1.155.
For the compound `CCCCCCCCCCCCCCCCCC(=O)OC[C@@H](O)COP(=O)([O-])OCC[N+](C)(C)C` [1-Stearoyl-sn-glycerol 3-phosphocholine], the Fold change is, setting by setting: under setting [1], 0.8936; under setting [6], 0.2224.
Take `C=C1CC[C@H](O)C/C1=C/C=C1\CCC[C@]2(C)[C@@H]([C@H](C)CCCC(C)C)CC[C@@H]12` [Cholecalciferol (Vitamin D3)]: the Fold change came out at 1.921 under setting [2] and 1.578 under setting [3].
In the case of `O=C(O)[C@H]1CCCCN1` [D-Pipecolinic acid], the Fold change under setting [2] is given as 2.231 and the Fold change under setting [4] worked out at 1.817.
`CCCC[C@H](N)C(=O)O` [L-Norleucine]: the Fold change is 0.6394 under setting [2], 1.28 under setting [4], 1.298 under setting [5] and 0.6711 under setting [6].
On to `CCCCCCCCCCCCCCCC(=O)O[C@H](CC(=O)[O-])C[N+](C)(C)C` [L-Palmitoylcarnitine], for which the Fold change under setting [2] worked out at 2.52 and the Fold change under setting [4] is recorded as 1.713.
With `O=C(O)[C@@H]1CCCCN1` [L-Pipecolic acid], the Fold change came out at 0.7035 under setting [2], 1.162 under setting [4] and 1.276 under setting [5].
For `CC(C)CCC[C@@H](C)[C@H]1CC[C@H]2C3=CC[C@H]4C[C@@H](O)CC[C@]4(C)[C@H]3CC[C@]12C` [Lathosterol], the Fold change under setting [2] stood at 2.481, the Fold change under setting [5] is given as 0.602 and the Fold change under setting [6] is recorded as 3.049.
For `CCCCCCCCCCCCC/C=C/[C@@H](O)[C@H](CO)NC(=O)CCCCCCCCCCCCCCC` [N-Palmitoylsphingosine], the Fold change under setting [6] is reported as 1.476.
For the compound `CN(C)C(N)=NCCC[C@H](N)C(=O)O` [NG,NG-dimethyl-L-arginine(ADMA)], the Fold change under setting [1] stood at 0.5058.
Still for that read-out and setting: then `CC(=O)OC[C@H](N)C(=O)O` [O-Acetyl-L-serine], with 0.6094.
On to `CCCCCCCCCCCCCCCC(=O)OC[C@H](COP(=O)([O-])OCC[N+](C)(C)C)OC(=O)CCCCCCCCCCCCCCC` [PC(16:0/16:0)], for which, under setting [6], the Fold change is 0.7843.
With `CSC[C@H]1O[C@@H](n2cnc3c(N)ncnc32)[C@H](O)[C@@H]1O` [S-Methyl-5'-thioadenosine], the Fold change under setting [6] stood at 0.6708.
In the case of `CCCCCCCCCCCCCCC[C@@H](O)[C@@H](N)CO` [Sphinganine], the Fold change under setting [2] turned out to be 1.985.
In the case of `CCCCCCCCCCCCC/C=C/[C@@H](O)[C@H](COP(=O)([O-])OCC[N+](C)(C)C)NC(=O)CCCCCCCCCCCCCCCCC` [Sphingomyelin (d18:1/18:0)], where the note is “rat, in vivo”, the Fold change was 1.142 and 1.189.
`COc1ccc(-c2cc(=O)c3c(OC)c(OC)c(OC)c(OC)c3o2)cc1` [Tangeritin]: the Fold change by setting is: under setting [4], 3.045; under setting [5], 9.489; under setting [6], 0.02313.
As to `CCCCCCCCCCCCCCCCSC[C@H](COP(=O)(O)OCC[N+](C)(C)C)NC(=O)CCCCCCCCCCCCCCC` [Thioetheramide-PC], the Fold change by setting is: under setting [5], 1.1574; under setting [6], 0.7991.
On to `NC(N)=O` [Urea], for which the Fold change under setting [4] is listed as 1.116.
`O=C1CCCCCN1` [epsilon-Caprolactam]: the Fold change is, setting by setting: under setting [2], 1.263; under setting [5], 0.793; under setting [3], 0.6921.
